Legend:
hTopo IIα = hTopo IIα (Homo sapiens, UniProt P11388); assay: Topo IIα kDNA decatenation assay; type: biochemical; settings: 25, 50 and 100 μM
Experimental: The Topo IIα enzyme catalysed the decatenation of catenated kDNA to closed circular decatenated kDNA. In one specific case, linear (L) and nicked-opened (NC) forms of DNA could by observed. […] The m-Amsacrine (AMSA) (lane 2) was the observed band for catenated DNA.
(§1) Figure 12 The result of Topo I/IIα activity tests in the presence of derivatives 3a–3d. (A) Electrophoretogram for inhibition relaxation activity of hTopo I (2.5 U) by derivatives 3a–3d in concentrations of 25, 50 and 100 μM (lane 5–16), substrate-free SC pBR322 (0.5 μg) (lane 4), camptothecin (CPT, lane 2) and plasmid+hTopo I control (lane 3). (NOC—nicked-opened DNA form; R—relaxed DNA form; SC—supercoiled DNA form). (B) Electrophoretogram for inhibition decatenation activity of hTopo IIα (0.5 U) by derivatives 3a–3d in concentrations of 25, 50 and 100 μM (lane 5–16), substrate-free catenated kinetoplast DNA (cat kDNA) (0.5 μg) (lane 4), m-Amsacrine (AMSA, lane 2) and plasmid +hTopo IIα control (lane 3). (decat DNA—decatenated DNA; NC—nicked circular DNA form; L—linear DNA form).

A549 cells = assay: MTT assay, metabolic activity of A549 cells; type: cell-based, human; settings: for SI, selectivity index: 48 h, IC50 CCD-18Co / IC50 A549; for IC50: Homo sapiens
Experimental: The effect of acridine-benzohydrazides (3a–3d) on the metabolic activity of the lung adenocarcinoma cell line (A549) and the normal colon fibroblast cell line (CCD-18Co) was evaluated using a 3-(4,5-dimethylthiazol-2-yl)-2,5-diphenyltertrazolium bromide (MTT) cell assay. This assay is based on the metabolization of yellow MTT to purple formazan crystal by mitochondrial dehydrogenases, and therefore only metabolic active cells are capable of that reaction. The CCD-18Co cell line was used as a control to check for derivatives selectivity. The doxorubicin belongs to a group of anthracyclines, which represent the chemotherapeutic regiments for the treatment of NSCLC (non-small cell lung carcinoma) even today, and acts as antineoplastic mainly by interaction with the DNA topoisomerase II and by creating DNA single- and double-strand breaks. Previous studies described detailed cytotoxic effects of doxorubicin in the human lung adenocarcinoma A549 cell line. Doxorubicin resembles our compounds in its biological action; therefore, it was employed as a positive control.
Human lung carcinoma cell line A549 and CCD-18Co colon fibroblasts were purchased from the American Type Culture Collection (ATCC, Rockville, MD, USA). The A549 cells were cultured in a complete RPMI-1640 medium (Sigma-Aldrich, St. Louis, MO, USA) and CCD-18Co cells were cultured in a minimum essential medium (MEM) (PAN-Biotech GmbH, Aidenbach, Germany) at 37 °C, 95% humidity and 5% CO2. The media were supplemented with 10% fetal bovine serum (FBS, Biosera, Nuaille, France) and antibiotics (1% Antibiotic-Antimycotic 100 × and 50 × 10^−3 g L^−1 gentamicin, Biosera). Prior to the selected treatments, cells were seeded on 6- and/or 96-well plates (TPP, Trasadingen, Switzerland) and left to settle for 24 h. The acridine compounds solutions (at concentrations ranging from 5–75 µM) were then added to cells for 24 or 48 h, and analysis was subsequently performed.
MTT assays were performed in order to evaluate changes in the metabolic activity of cells that had occurred as a consequence of treatment with the acridine compounds. A549 cells (15 × 10^3 cells/cm^2) and CCD-18Co (15.625 × 10^3 cells/cm^2) were seeded in 96-well microplates. The A549 cells were treated for 24 and 48 h, and the CCD-18Co cells were treated for 48 h with different concentrations (5, 25, 50 and 75 µM) of the derivatives. After the treatment, the MTT (3-(4,5-dimethylthiazol-2-yl)-2,5-diphenyltertrazolium bromide) solution in PBS (5 mg mL^−1) was added to each well. The reaction was stopped after 4 h incubation, and the formazan was dissolved by the addition of SDS at a final concentration of 3.3%. The absorbance of formazan (λ = 584 nm) was measured using a BMG FLUOstar Optima spectrometer (BMG Labtech GmbH, Offenburg, Germany). The results were evaluated as percentages of the absorbance of the untreated control. Results are presented as the average percentage of cells from three independent experiments. IC50 values for the derivatives were extrapolated from a sigmoidal fit (dose-response curve) to the metabolic activity data using OriginPro 8.5.0 SR1 (OriginLab Corp., Northampton, MA, USA).

hTopo I = biological target: T1, hTopo I (Homo sapiens, UniProt P11387); assay: Topo I DNA relaxation assay; type: biochemical; settings: 25, 50 and 100 μM; pBR322
T1 sequence (P11387 1-765): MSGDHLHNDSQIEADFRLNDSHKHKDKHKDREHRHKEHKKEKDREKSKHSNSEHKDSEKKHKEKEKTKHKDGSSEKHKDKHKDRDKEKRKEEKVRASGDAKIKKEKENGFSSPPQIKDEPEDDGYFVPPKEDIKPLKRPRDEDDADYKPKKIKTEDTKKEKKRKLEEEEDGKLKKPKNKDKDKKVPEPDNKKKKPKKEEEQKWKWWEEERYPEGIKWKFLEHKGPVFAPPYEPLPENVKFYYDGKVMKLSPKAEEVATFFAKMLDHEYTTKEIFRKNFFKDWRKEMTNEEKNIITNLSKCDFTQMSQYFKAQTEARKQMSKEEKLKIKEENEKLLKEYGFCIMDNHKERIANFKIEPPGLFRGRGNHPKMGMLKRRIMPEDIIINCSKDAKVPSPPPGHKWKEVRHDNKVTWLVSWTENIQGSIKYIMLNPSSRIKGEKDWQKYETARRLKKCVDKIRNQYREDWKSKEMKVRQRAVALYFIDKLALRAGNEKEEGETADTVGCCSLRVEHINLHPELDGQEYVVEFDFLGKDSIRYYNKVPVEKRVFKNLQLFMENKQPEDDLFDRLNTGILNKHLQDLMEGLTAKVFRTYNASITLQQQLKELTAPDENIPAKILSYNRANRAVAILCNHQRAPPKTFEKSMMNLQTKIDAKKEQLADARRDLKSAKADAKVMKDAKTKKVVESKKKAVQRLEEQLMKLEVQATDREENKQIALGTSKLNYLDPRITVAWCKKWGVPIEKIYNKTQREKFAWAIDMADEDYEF
Text: Topo I enzymes convert the supercoiled (SC) form DNA to relaxed (R) form and nicked-open-circular (NOC) DNA. The NOC form is circular dsDNA with one nicked strength; Topo I nicked only one strength. SC form DNA migrate the fastest in gel, NOC migrates the slowest, and the migration speed of R DNA is in the middle of these two forms. In an electrophoretogram with active Topo I enzymes, SC DNA is not observed, but R and NOC DNA forms can be seen. In the case of Topo I inhibition, bends for R and NOC DNA forms are not observed. The results electrophoretogram effect of derivatives 3a–3d on activity topoisomerase I show Figure 12A.
as §1

Chain of hTopo IIα (P11388 whole entry): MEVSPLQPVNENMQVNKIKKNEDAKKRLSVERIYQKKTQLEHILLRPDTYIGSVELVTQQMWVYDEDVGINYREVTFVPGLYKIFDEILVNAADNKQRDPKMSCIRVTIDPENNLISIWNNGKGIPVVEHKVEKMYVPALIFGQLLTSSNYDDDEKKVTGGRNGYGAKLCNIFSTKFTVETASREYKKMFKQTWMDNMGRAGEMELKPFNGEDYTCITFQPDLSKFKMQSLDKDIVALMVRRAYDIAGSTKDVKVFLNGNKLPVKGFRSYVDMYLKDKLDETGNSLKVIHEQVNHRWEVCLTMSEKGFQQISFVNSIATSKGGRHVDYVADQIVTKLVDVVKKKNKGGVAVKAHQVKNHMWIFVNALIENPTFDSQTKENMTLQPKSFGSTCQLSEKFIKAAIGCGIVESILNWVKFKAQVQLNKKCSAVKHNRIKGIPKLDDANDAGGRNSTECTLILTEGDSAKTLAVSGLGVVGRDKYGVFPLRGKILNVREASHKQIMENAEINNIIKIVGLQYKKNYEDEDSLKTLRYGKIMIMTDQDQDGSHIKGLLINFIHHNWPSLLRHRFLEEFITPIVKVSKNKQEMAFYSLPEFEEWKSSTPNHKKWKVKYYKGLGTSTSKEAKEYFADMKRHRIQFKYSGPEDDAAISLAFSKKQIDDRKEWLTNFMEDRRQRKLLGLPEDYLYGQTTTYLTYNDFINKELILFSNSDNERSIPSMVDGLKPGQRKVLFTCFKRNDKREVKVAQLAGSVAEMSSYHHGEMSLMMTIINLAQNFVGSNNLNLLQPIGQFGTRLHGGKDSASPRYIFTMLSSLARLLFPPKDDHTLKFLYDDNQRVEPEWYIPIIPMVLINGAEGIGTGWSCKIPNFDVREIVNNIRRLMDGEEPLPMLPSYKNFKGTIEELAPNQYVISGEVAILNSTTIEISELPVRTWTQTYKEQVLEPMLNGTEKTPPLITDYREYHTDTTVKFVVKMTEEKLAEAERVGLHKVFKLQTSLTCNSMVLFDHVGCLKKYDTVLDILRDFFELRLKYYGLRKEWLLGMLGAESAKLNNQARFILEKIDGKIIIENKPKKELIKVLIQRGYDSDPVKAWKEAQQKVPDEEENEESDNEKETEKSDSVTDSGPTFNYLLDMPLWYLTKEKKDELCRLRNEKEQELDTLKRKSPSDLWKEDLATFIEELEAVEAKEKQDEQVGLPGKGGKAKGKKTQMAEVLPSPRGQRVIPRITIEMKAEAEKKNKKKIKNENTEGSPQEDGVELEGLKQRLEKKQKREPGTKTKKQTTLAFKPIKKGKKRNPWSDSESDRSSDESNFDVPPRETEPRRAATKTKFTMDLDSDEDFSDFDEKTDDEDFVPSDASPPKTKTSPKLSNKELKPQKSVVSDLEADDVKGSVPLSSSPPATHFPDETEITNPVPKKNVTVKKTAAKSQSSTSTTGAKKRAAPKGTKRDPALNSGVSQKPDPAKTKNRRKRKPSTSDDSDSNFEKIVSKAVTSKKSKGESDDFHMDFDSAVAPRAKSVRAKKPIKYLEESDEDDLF

| Structure (SMILES) | inhibition of decatenation activity of Topo IIα (hTopo IIα) | SI, selectivity index (A549 cells) | IC50 (A549 cells; A549, 24 h) [µM] | IC50 (A549 cells; A549, 48 h) [µM] | inhibition of relaxation activity of Topo I (hTopo I) |
| --- | --- | --- | --- | --- | --- |
| O=C(N/N=C/c1cccc2cc3ccccc3nc12)c1ccc(Cl)cc1 [3c, N′-[(E)-Acridin-4-ylmethylidene]-4-chlorobenzohydrazide] | partial inhibition | 0.36 | 73 | 45 | might inhibit the relaxation activity of Topo I |
| O=C(N/N=C/c1cccc2cc3ccccc3nc12)c1ccc(Br)cc1 [3d, N′-[(E)-Acridin-4-ylmethylidene]-4-bromobenzohydrazide] | partial inhibition | 0.31 | > 75 | 55 | might inhibit the relaxation activity of Topo I |
| O=C(N/N=C/c1cccc2cc3ccccc3nc12)c1ccccc1 [3a, N′-[(E)-(Acridin-4-yl)methylidene]benzohydrazide] | No obvious inhibitory effects |  | > 75 | 43 | did not have the potential to inhibit |
| O=C(N/N=C/c1cccc2cc3ccccc3nc12)c1ccc(F)cc1 [3b, N′-[(E)-Acridin-4-ylmethylidene]-4-fluorobenzohydrazide] | No obvious inhibitory effects | 0.22 | > 75 | 37 | did not have the potential to inhibit |
